Data published in ChEMBL document CHEMBL1157069, “JBIR-22, an inhibitor for protein-protein interaction of the homodimer of proteasome assembly factor 3” (J Nat Prod, 2010).

Legend:
PAC1-PAC2 complex = molecular target: T1, PAC1-PAC2 complex (Homo sapiens, UniProt O95456+Q969U7); assay: Inhibition of PAC1/PAC2 interaction by protein fragment complementation assay; assay type: protein-complex assay
T1 sequence (O95456 whole entry): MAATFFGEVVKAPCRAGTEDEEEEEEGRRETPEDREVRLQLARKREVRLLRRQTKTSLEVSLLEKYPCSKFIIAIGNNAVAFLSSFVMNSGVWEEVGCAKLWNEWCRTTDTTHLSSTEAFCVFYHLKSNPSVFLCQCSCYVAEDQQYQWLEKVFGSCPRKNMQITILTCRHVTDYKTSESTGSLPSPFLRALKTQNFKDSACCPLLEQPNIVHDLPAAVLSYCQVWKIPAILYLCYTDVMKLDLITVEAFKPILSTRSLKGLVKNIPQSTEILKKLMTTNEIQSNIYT
T1 sequence (Q969U7 whole entry): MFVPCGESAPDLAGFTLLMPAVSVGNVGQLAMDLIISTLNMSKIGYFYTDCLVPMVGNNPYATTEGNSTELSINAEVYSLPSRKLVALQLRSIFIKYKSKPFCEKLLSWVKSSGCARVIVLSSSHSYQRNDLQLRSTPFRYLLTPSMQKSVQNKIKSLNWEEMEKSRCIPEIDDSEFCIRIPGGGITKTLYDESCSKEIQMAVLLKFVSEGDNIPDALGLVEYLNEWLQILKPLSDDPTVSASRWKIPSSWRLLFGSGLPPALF

HeLa [1] = assay: Cytotoxicity against human HeLa cells after 120 hrs by WST8 assay; assay type: functional, cell-based
[2] = molecular target: T2, Proteasome assembly chaperone 3 (Homo sapiens, UniProt Q9BT73); assay: Inhibition of PAC3 homodimerization by protein fragment complementation assay
T2 sequence (Q9BT73 whole entry): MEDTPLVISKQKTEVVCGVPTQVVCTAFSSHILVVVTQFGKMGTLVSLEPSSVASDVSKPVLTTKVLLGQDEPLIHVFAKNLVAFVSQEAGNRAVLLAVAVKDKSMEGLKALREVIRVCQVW

[3] = molecular target: Catenin beta-1/Transcription factor 7 (Homo sapiens, UniProt P35222+P36402); assay: Inhibition of T cell factor7/beta-catenin interaction by protein fragment complementation assay; assay type: cell-based
HeLa [4] = assay: Cytotoxicity against human HeLa cells after 48 hrs by WST8 assay; assay type: functional, cell-based

Sequence of Catenin beta-1/Transcription factor 7 (P36402 whole entry, the tested form may be a part): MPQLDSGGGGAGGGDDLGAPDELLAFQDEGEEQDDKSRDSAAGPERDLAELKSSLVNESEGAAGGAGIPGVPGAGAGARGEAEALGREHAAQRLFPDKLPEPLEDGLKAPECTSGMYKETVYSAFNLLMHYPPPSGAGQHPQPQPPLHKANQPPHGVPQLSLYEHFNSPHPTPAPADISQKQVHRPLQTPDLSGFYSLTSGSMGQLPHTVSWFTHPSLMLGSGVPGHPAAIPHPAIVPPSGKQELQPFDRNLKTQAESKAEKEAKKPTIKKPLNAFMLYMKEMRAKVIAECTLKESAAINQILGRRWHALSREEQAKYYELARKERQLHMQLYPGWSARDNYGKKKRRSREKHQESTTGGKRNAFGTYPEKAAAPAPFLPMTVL
Sequence of Catenin beta-1/Transcription factor 7 (P35222 whole entry, the tested form may be a part): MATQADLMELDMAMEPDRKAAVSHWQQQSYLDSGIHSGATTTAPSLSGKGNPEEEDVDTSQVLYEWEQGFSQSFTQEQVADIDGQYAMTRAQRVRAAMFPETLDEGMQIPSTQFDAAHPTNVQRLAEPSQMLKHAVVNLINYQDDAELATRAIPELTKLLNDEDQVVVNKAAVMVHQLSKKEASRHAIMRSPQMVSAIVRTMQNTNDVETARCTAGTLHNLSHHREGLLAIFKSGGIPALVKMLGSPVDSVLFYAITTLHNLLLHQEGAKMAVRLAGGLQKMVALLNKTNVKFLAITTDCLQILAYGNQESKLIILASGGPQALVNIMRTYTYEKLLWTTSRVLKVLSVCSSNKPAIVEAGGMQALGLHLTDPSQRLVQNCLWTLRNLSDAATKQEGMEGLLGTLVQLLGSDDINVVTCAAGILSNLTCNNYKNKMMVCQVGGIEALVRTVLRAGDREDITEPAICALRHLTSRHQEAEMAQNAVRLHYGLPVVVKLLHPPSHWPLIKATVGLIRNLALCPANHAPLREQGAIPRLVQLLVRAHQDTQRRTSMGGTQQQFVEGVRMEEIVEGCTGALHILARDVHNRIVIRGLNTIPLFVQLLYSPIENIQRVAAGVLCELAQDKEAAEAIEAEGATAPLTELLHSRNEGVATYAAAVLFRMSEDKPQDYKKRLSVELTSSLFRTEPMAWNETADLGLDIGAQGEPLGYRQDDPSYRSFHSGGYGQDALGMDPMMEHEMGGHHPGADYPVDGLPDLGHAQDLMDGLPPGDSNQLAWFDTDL

Row | Structure (SMILES) | IC50 (PAC1-PAC2 complex) | IC50 (HeLa [1]) | IC50 [2] | IC50 [3] | IC50 (HeLa [4])
1 | CC(C)[C@@](O)(C[C@H]1C(=O)/C(=C(\O)[C@H]2[C@@H]3CCCC[C@H]3C=C[C@H]2C)C(=O)N1C)C(=O)O | 6000 nM | 68000 nM | 200 nM | 6000 nM | –
2 | COc1cccc2c1C(=O)c1c(O)c3c(c(O)c1C2=O)C[C@@](O)(C(=O)CO)C[C@@H]3O[C@H]1C[C@H](N)[C@H](O)[C@H](C)O1 [DOXORUBICIN] | – | 55 nM | – | – | 37 nM
3 | CC(=O)O[C@H]1C(=O)[C@@]2(C)[C@H]([C@H](OC(=O)c3ccccc3)[C@]3(O)C[C@H](OC(=O)[C@H](O)[C@@H](NC(=O)c4ccccc4)c4ccccc4)C(C)=C1C3(C)C)[C@]1(OC(C)=O)CO[C@@H]1C[C@@H]2O [PACLITAXEL] | – | 190 nM | – | – | 30 nM
